By IC50 is commonly meant the concentration at which inhibition is half-maximal.

Data on two molecules can be found in patent US20210155990A1, “NF-KB REGULATED GENE EXPRESSION ASSAY FOR ASSESSING EFFICACY OF MALT1 INHIBITORS” (Janssen Pharmaceutica NV, priority 2019, published 2021).

In one series the test system is DLBCL cell lines. Briefly: Growth of DLBCL cell lines in vitro (nonclinical studies). Format: cell-based.
Series [1] relates to MALT1 regulated gene expression in NHL whole blood. Particulars: 100 μM 2 h, PMA-stimulated samples.
Procedure: Then, aliquots were stimulated with CD3 and CD28 antibodies (1 ug/ml each), PMA (20 ng/ml) and Ionomycin (1 μg/mL), or unstimulated (PBS) for four hours. Following stimulation, the treated blood was transferred into a PAXgene tube (Qiagen; Hilden, Germany) and RNA was extracted using the PAXgene RNA kit.
Gene expression was measured using 100 ng of RNA extracted from the whole blood in the Pan-Cancer Immune Profiling kit (NanoString; Seattle, Wash.) according to the manufacturer's instructions. Gene expression was normalized across samples using NanoString nSolver software. […] Briefly, log2-scaled, normalized NanoString counts were fit to a linear model (which incorporated the patient of origin) and moderated t-statistics, along with the associated Benjamini-Hochberg (BH) corrected p-values, were computed by empirical Bayes moderation of the standard errors towards a common value.
Series [2] concerns T cells (CD4+ and CD8+) in normal blood. Briefly: CD69 expression on T cells, normal peripheral whole blood, anti-CD3/anti-CD28 stimulation (IFC). It is filed as cell-based, human. Particulars: 200 μM overnight, anti-CD3/anti-CD28 6 hours. The procedure:
(§1) Both tubes were mixed well. The treated blood mixture was transferred at 3 mL per well to a 6-well polystyrene culture plate (Falcon, cat. #353046) and incubated overnight in a humidified incubator at 37° C. with 5% CO2.
(§2) The solution was mixed by pipetting with a 1 mL pipette. The plates were incubated in a humidified incubator at 37° C. with 5% CO2 for an additional 6 hours.
(§3) The next day, blood was treated with anti-CD3 and anti-CD28 stimulatory antibodies for 6 hours as described in Example 1 or left untreated. After treatment with the stimulatory antibodies, the red blood cells were lysed using multi-species lysis buffer, and the white blood cells were stained with anti-CD4 and anti-CD8 antibodies to label T cells and an anti-CD69 antibody to measure early T cell activation. Frequency of CD69-positive T cells (CD4+ and CD8+) was measured by IFC.

For series [3], the system named is NF-κB (p50) nuclear translocation in CD19-positive B (CLL) cells. Briefly: NF-κB nuclear translocation in B cells from CLL PBMCs, anti-IgM 30 minutes (Example 5). Format: cell-based, human. Particulars: 6 hours compound. The procedure:
Alternatively, B cells can also be activated by beads coated with anti-IgM antibody. After the stimulation, PBMCs were fixed using CytoFix buffer and permeabilized using 0.1% Triton X-100 solution. Cells were then stained with anti-CD19 to label B (CLL) cells, Hoechst 33342 to label nuclei, and anti-p105/p50 to label NF-κB subunit. Samples were analyzed on ImageStreamX to evaluate NF-κB nuclear localization in the CD19-positive cells. […] Statistical significance was determined using Student's t-test in Microsoft Excel.

The subject of series [4] is MALT1 regulated gene expression in NHL whole blood. Particulars: 200 μM 24 h, anti-CD3/CD28 four hours.
Procedure: (§4) Peripheral blood was collected from three NHL and two CLL patients. […] Prior to stimulation and following stimulation, the treated blood was transferred into a PAXgene tube (Qiagen; Hilden, Germany) and RNA was extracted using the PAXgene RNA kit. Gene expression was measured using 100 ng of RNA extracted from the whole blood in the Pan-Cancer Immune Profiling kit (NanoString; Seattle, Wash.) according to the manufacturer's instructions.
The test system of series [5] is proteases, caspases, protein kinases, and G-protein-coupled receptors. Put plainly: Binding inhibition panel at single dose. Particulars: single dose of either 1 μM or 10 μM.
Series [6] is described as follows: Oral bioavailability (description).
Series [7] has as its system T cells (CD4+ and CD8+) in NHL blood. Put plainly: CD69 expression on T cells, NHL peripheral whole blood, anti-CD3/anti-CD28 stimulation (IFC). Format: cell-based, human. Particulars: 200 μM overnight, anti-CD3/anti-CD28 6 hours. As to the method: as §1, §2, §3
Series [8] has as its system NF-κB2, TNFSF10, APOE, PYCARD expression. Put plainly: Gene expression in T-cells and PBMCs purified from NHL blood without stimulation (Example 9). Format: cell-based, human. Particulars: no stimulation, 24 hours. As to the method:
Peripheral blood was collected from five NHL patients, and the peripheral blood was allowed to stand overnight. Then, the peripheral blood was treated for 24 hours with a MALT inhibitor or DMSO control. PBMCs were purified from the unstimulated blood using a ficoll density gradient and T-cells were purified using CD3 Beads (Miltenyi) using the manufacturers protocol. Purified cells were lysed in RLTplus (Qiagen) and RNA was extracted from the purified cells using an AllPrep kit (Qiagen). Gene expression was measured using 100 ng of RNA in the Pan-Cancer Immune Profiling kit (NanoString) according to the manufacturer's instructions. Gene expression signatures were compared between the MALT inhibitor treated and DMSO treated samples.

Series [9] concerns NF-κB (p50) nuclear translocation in B (CLL) cells. Briefly: NF-κB nuclear translocation in B cells from CLL PBMCs, anti-IgM 6 hours (Example 6). It is filed as cell-based, human. Particulars: CLL PBMC, overnight compound. As to the method: Cells were then treated with anti-IgM or left untreated for 6 hours. After stimulation, PBMC were fixed using CytoFix buffer and permeabilized using 0.1% Triton X-100 solution. Cells were then stained with anti-CD19 to label B (CLL) cells, anti-CD4 and anti-CD8 to label T cells, Hoechst 33342 to label nuclei, and anti-p105/p50 to label NF-kB subunit. Samples were analyzed on ImageStreamX to evaluate NF-kB nuclear localization in B cells or T cells. […] Statistical significance was determined using Student's t-test in Microsoft Excel.

Series [10] concerns NF-κB (p50) nuclear translocation in T cells. Briefly: NF-kB nuclear translocation in T cells from NHL whole blood by imaging flow cytometry (Example 4). It is filed as cell-based, human. The procedure: as §2
Frozen or fresh cells treated with the experimental conditions were obtained. For example, T cells in blood samples could be activated and the PBMCs containing the activated T cells could be isolated using the method described in Example 1. Alternatively, PBMCs in blood samples could be activated and subject to the imaging flow cytometry analysis directly without isolation. If the samples were whole blood, a minimum of 1 mL of blood was used for each test in this experiment. However, less than 1 mL whole blood can also be used in the assay. […]
The samples were imaged on an AMNIS® […]® X Mark II imaging flow cytometer (MilliporeSigma, Burlington, Mass.) immediately, using 60× magnification, and the data was analyzed in IDEAS software using an internalization module, e.g., to evaluate frequency of CD4+ and CD8+ T cells or CLL cells with nuclear enrichment of p50.
The next day, the mixture samples were treated with anti-CD3 and anti-CD28 stimulatory antibodies following a procedure as that described in Example 1. […] Samples were analyzed on ImageStreamX to evaluate NF-κB nuclear localization in the CD4 and the CD8 positive T cells.

For series [11], the system named is MALT1 regulated gene expression in CLL whole blood. Particulars: 200 μM 24 h, anti-CD3/CD28 four hours.
Procedure: as §4
Series [12] deals with IL2, an NF-κB regulated gene. Briefly: IL2 expression in purified T-cells and PBMCs from NHL blood (Example 8). Format: cell-based, human. Particulars: T-cells and PBMC from NHL blood; 24 hours; anti-CD3/CD28 six hours. As to the method:
The effect of a MALT inhibitor was analyzed utilizing gene expression signatures from purified T-cells and PBMCs from Non-Hodgkin's lymphoma patients. Peripheral blood was collected from five NHL patients, and the peripheral blood was allowed to stand overnight. Then, the peripheral blood was treated for 24 hours with a MALT inhibitor or DMSO control. The blood was then stimulated with monoclonal antibodies against CD3 and CD28 for six hours. Prior to stimulation and following stimulation, PBMC were purified from the treated blood using a ficoll density gradient and T-cells were purified using CD3 Beads (Miltenyi) using the manufacturers protocol. Purified cells were lysed in RLTplus (Qiagen) and RNA was extracted from the purified cells using an AllPrepkit (Qiagen). Gene expression was measured using 100 ng of RNA in the Pan-Cancer Immune Profiling kit (NanoString) according to the manufacturer's instructions.

Series [13] has as its system NF-κB proteins (p50 and RelB) in CLL cells. Particulars: CLL cells treated in vitro; ELISA; cited from earlier work.

For `O=C(Nc1ccnc(C(F)(F)F)c1)c1cnn(-c2cccc3c(=O)[nH]ccc23)c1C(F)(F)F` [Compound A, 1-(1-oxo-1,2 dihydroisoquinolin-5-yl)-5 (trifluoromethyl)-N-[2 (trifluoromethyl)pyridin-4 yl]-1H-pyrazole-4 carboxamide], in the series on DLBCL cell lines, the “growth of CD79b-mutant DLBCL cell lines” value is “inhibit growth” and the “growth of ibrutinib-resistant DLBCL cell lines harboring BTK C481S or CARD11 mutations” value was “inhibit growth”. For the same molecule, in series [1], the “gene expression of ICOS, POU2F2, CCR4, and CTLA4” value is “downregulated”; the genes upregulated entry is recorded as “no genes were significantly upregulated”. Also, the “surface expression of CD69 on CD4+ and CD8+ T cells” value in series [2] is “not affected”. Further, the “NF-κB nuclear translocation in activated B cells” value in [3] was “inhibited”. For the same molecule, in series [4], the “stimulation induced upregulation of CXCL10” value is “repressed”. In addition, in [5], the “binding inhibition of proteases, caspases, protein kinases, and G-protein-coupled receptors” value is on record as “did not show significant binding inhibition”. In series [6], the oral bioavailability entry is on record as “orally bioavailable”. Also, the “surface expression of CD69 on T cells” value in series [7] is on record as “significantly inhibited”. Also, in series [8] (purified PBMCs), the APOE expression result was “repressed” and the PYCARD expression result is listed as “repressed”. In addition, in series [8] (purified T-cells), the NF-κB2 expression result is on record as “repressed” and the TNFSF10 expression result is reported as “repressed”. The “NF-κB nuclear translocation in B cells activated by anti-IgM” value in [9] was “inhibited”. Besides, in series [10] (CD3/CD28 stimulation, dosage dependent), the “NFκB nuclear translocation in T cells (canonical NF-κB signaling)” value was “completely blocked”. Further, the IC50 in series [10] (Homo sapiens, T-cell, overnight, CD3/CD28 stimulation 6 h, read-out: IC50, NFκB nuclear translocation in T cells) is around 9.5 µM. Further, the “stimulation induced upregulation of CXCL10” value in [11] is given as “repressed”. For the same molecule, the “stimulation induced upregulation of IL2” value in series [12] was “repressed”.

For `COCCOc1nc(-c2ccc(Cl)c(Cl)c2)n(-c2ccc(NC(=O)CCl)cc2)n1` [MI-2], the “nuclear translocation of NF-κB proteins (p50 and RelB)” value in [13] was “suppress”.
